This passage reports IC50 results from publication PMC3530165 (Chemistry & biology, 2012).

Where two headings read alike, the source gives them in different places.

This experiment addresses C619A GlcB (malate synthase) (Mycobacterium tuberculosis, UniProt P9WK17, C619A).

`O=C(O)C(=O)CC(=O)c1ccc(Br)cc1` [Compound 9] displayed an IC50 of 5.7 µM. Besides, the IC50 (read-out: IC50 against GlcB) is 6 µM.

`O=C(O)C(=O)CC(=O)c1ccccc1Cl` [Compound 3] displayed an IC50 of 0.5 µM.

With `O=C(O)C(=O)CC(=O)c1ccccc1F` [Compound 2], half-maximal inhibition (IC50) required 0.24 µM.

The compound `O=C(O)C(=O)CC(=O)c1cccc(Cl)c1` [Compound 6] registered an IC50 of 0.17 µM.

`Cc1ccc(C(=O)CC(=O)C(=O)O)cc1` [Compound 8]: the IC50 came out at 6 µM. The IC50 (read-out: IC50 against GlcB) was 5.7 µM.

One may read the IC50 as the concentration that gives 50% inhibition.
